Reference: article PMC11859423, “Fluorescent Probes to Image the KCa3.1 Channel in Tumor Cells” (Pharmaceutics, 2025)
Where “and” joins values, the source holds several entries; their conditions need not be identical. Equal values may be shown once. Entries after “also recorded” stand apart in the source; their conditions may differ. Read-outs that look alike come from different tables or passages of the source.

Legend:
[1] = cited from earlier work; for Absorption λmax / Emission λmax / Stokes Shift / ΦF absolute quantum yield / τ photoluminescence lifetime: 298 K
[2] = UV-Vis absorption and time-resolved photoluminescence spectroscopy; type: physicochemical
Description: All solvents used were of spectrometric grade (Uvasol®). UV-visible absorption spectra were measured using a Shimadzu UV–VIS spectrophotometer (UV-3600i). Photoluminescence quantum yields were measured with a Hamamatsu Photonics absolute PL quantum yield measurement system (C9920-02) equipped with a L9799-01 CW Xe light source (150 W), a monochromator, a C7473 photonic multi-channel analyzer, an integrating sphere and employing U6039-05 software, version 3.6.0. (Hamamatsu Photonics, Ltd., Shizuoka, Japan). Steady-state excitation and emission spectra were recorded on a FluoTime 300 spectrometer from PicoQuant equipped with a 300 W ozone-free Xe lamp (200–1100 nm), a 10 W Xe-flash lamp (200–1100 nm, pulse width ca. 1 µs) with repetition rates of 1–300 Hz, a double-grating excitation monochromator (Czerny–Turner type, grating with 1200 lines/mm, blaze wavelength: 300 nm), diode lasers (pulse width < 20 ps) operated by a computer-controlled laser driver PDL-828 “Sepia II” (repetition rate up to 80 MHz, burst mode for slow and weak decays), two emission monochromators (Czerny–Turner, selectable between double-grating blazed at 500 nm with 2.7 nm/mm dispersion and 1200 lines/mm, or single-grating blazed at 1250 nm with 5.4 nm/mm dispersion and 600 lines/mm) with adjustable slit width between 25 μm and 7 mm. Glam–Thompson polarizers for excitation (after the Xe-lamps) and emission (after the sample) were used. Different sample holders (Peltier-cooled mounting unit ranging from −15 to 110 °C or an adjustable front-face sample holder), along with two detectors (namely a PMA Hybrid-07 from PicoQuant with transit time spread FWHM < 50 ps, 200–850 nm, or a H10330C-45-C3 NIR detector with transit time spread FWHM 0.4 ns, 950–1400 nm from Hamamatsu) were used. Steady-state spectra and photoluminescence lifetimes were recorded in TCSPC mode by a PicoHarp 300 (minimum base resolution 4 ps) or in MCS mode by a TimeHarp 260 (where up to several ms can be traced). Emission and excitation spectra were corrected for source intensity (lamp and grating) by standard correction curves. For samples with lifetimes in the ns order, an instrument response function calibration (IRF) was performed using a diluted Ludox® dispersion. Lifetime analysis was performed using the commercial EasyTau 2 software, version 2.3. (PicoQuant, Berlin, Germany). The quality of the fit was assessed by minimizing the reduced chi squared function (χ^2) and visual inspection of the weighted residuals and their autocorrelation.
Fluorescence microscopy was used for the analysis of KCa3.1 channel labeling of cells with fluorescent dyes. Therefore, the photophysical properties of fluorescently labeled senicapoc derivatives 15a, 21a, and 22 were determined. Since the fluorophores are separated from the rest of the molecule by a linker, the photophysical properties could be recorded using azide precursors 6a, 6b, and 7a as well.

[3] = target: T1, KCa3.1 channel in A549-3R cells (Homo sapiens, UniProt O15554); experiment: Staining of fixed A549-3R tumor cells (Protocol 1), fluorescence microscopy; type: cell-based; details: 10 µM in PBS, 10 min, 4 °C, Protocol 1
T1 construct: the non-small cell lung cancer cell line A549-3R with a high expression of the KCa3.1 channel was employed; endogenous in cells; host or cells: A549-3R cells
Description: For the fixation of the cells, the DMEM medium was removed from the glass bottom dish after incubation for 24 h, and the cells were washed with 1 mL of PBS. Subsequently, 1 mL of 4% paraformaldehyde in PBS solution was added to the glass bottom dish and the mixture was incubated for 30 min at room temperature. Thereafter, the cells were washed five times with 1 mL of PBS and used for the cell staining experiments.
After fixation of the cells (Section 2.10.2), 300 µL of the 10 µM staining solution was added to the glass bottom dish. The cells were incubated for 10 min at 4 °C in a dark chamber. After incubation, the cells were washed five times with 1 mL of PBS and used subsequently for fluorescence microscopy.
An Axiovert 200 inverted microscope (Carl Zeiss AG, Jena, Germany) with a ×100 oil immersion objective and a digital camera (SPOT RT SE from Diagnostic Instruments Inc., Livingston, UK) were used. The camera was controlled by MetaVue software (version 6.3r6, Visitron, Germany). Two different filter sets were employed, the FITC filter set (Carl Zeiss Filter Set 10 bandwidth excitation filter 450–490, color splitter 510, bandpass filter 515–565) and the TRITC filter set (Carl Zeiss Filter Set 15, bandpass excitation filter 546/12, dichroic mirror 580, emission filter Long Pass 590).
Using the free imaging software ImageJ (1.53f51, NIH, USA), squares with an edge length of 50 × 50 pixels, corresponding to an area of 9 µm^2, were randomly placed in a cell and signals with Full Width at Half Maximum (FWHM) of ≤5 pixels (~300 nm) were counted as a KCa3.1 channel. For the evaluation, 7 squares were analyzed.
For the staining experiments, the non-small cell lung cancer cell line A549-3R with a high expression of the KCa3.1 channel was employed. An optimized staining protocol (Protocol 1) described previously was followed to analyze the imaging properties of the fluorescent probes. In brief, the 10 µM solution of the senicapoc–dye conjugate in PBS was added to adherent A549-3R cells in a glass bottom dish and the set-up was incubated for 10 min at 4 °C in a dark chamber. After careful washing, the cells were analyzed with a fluorescence microscope.
The images were analyzed with respect to size and density of the fluorescent dots. For this purpose, a square with a size of 50 × 50 pixels was randomly placed on the cell images using ImageJ. The intensities of the signals within the square were analyzed to calculate the Full Width at Half Maximum (FWHM) for each selected dot, which represents a measure for the signal size. For the accurate representation of a single KCa3.1 channel, the FWHM should be in the range of five pixels. Signals with a FWHM of ≤5 pixels within the square were regarded as labeled KCa3.1 channels and the number of identified channels was used to determine the density of the ion channels on the cells (Figure S8, Supplementary Materials).

[4] = logP by HPLC retention time correlation; type: physicochemical; details: standardized reversed phase HPLC system
Description: The logP values were recorded using HPLC analysis. Thus, the retention time of the test compound in a standardized reversed phase HPLC system is correlated with the retention times of compounds with known logP values.
In addition to the logD7.4 values, the logP values of the fluorescent probes were recorded by HPLC, i.e., after calibration of the method, the retention times were correlated with the logP values or the compounds [33]. […] Fluorescein-labeled ligands 21a and 21b are considerably more polar than the corresponding bodipy-labeled senicapoc derivatives.

[5] = logD7.4 by micro shake flask method (n-octanol / MOPS buffer pH 7.4, LC-MS); type: physicochemical; details: read-out: logD7.4 ± SD (Micro Shake Flask)
Description: The logD7.4 values were recorded using the micro shake flask method. In this method, the test compound is distributed between n-octanol and MOPS buffer pH 7.4, and the amount of the compound in the buffer layer is determined by mass spectrometry.
The new fluorescent dyes were designed to increase the polarity and reduce the non-specific labeling of lipophilic membranes of cells. Moreover, a higher polarity should lead to increased water solubility and thus improved handling of the dyes. The logD7.4 value was recorded as a measure of the polarity/lipophilicity using our recently published micro-shake flask method. According to this method, the amount of compound in the aqueous 3-morpholinopropanesulfonic acid (MOPS) buffer pH 7.4 was determined by LC-MS [31, 32].

[6] = measured in CH3CN, c = 10^−5 M, CH2CH2O linker instead of CH2CH2OCH2CH2O linker
[7] = solution (CH2Cl2 or CH3CN), c = 10^−5 M, 298 K
[8] = general property stated without reference

## CC1=CC(C)=[N+]2C1=C(c1ccc(OCCOCCN=[N+]=[N-])cc1)c1c(C)cc(C)n1[B-]2(F)F [6a]
[1]; CH2Cl2, c = 10^−5 M
  Absorption λmax: 501 nm
  Emission λmax: 515 nm
  Stokes Shift: 14 nm
  ΦF absolute quantum yield: 0.48 ± 0.02
  τ photoluminescence lifetime: 3.80 ± 0.02 ns

## CCC1=C(C)C2=C(c3ccc(OCCOCCN=[N+]=[N-])cc3)c3c(C)c(CC)c(C)n3[B-](F)(F)[N+]2=C1C [6b, 8-[4-(2-(2-Azidoethoxy)ethoxy)phenyl]-2,6-diethyl-4,4-difluoro-1,3,5,7-tetramethyl-4-bora-3a,4a-diaza-s-indacene]
[2]; 6b compared with 6a
  increase of absorption and emission maxima by two ethyl moieties at the bodipy core: 23 nm
[1]; [6]
  Absorption λmax: 524 nm
  Emission λmax: 537 nm
  Stokes Shift: 13 nm
  ΦF absolute quantum yield: 0.81 ± 0.02
  τ photoluminescence lifetime: 6.32 ± 0.05 ns

## CO[B-]1(F)n2c(C)cc(C)c2C(c2ccc(OCCOCCN=[N+]=[N-])cc2)=C2C(C)=CC(C)=[N+]21 (stereo not drawn) [7a]
[1]; CH2Cl2, c = 10^−5 M
  Absorption λmax: 501 nm
  Emission λmax: 516 nm
  Stokes Shift: 15 nm
  ΦF absolute quantum yield: 0.43 ± 0.02
  τ photoluminescence lifetime: 3.50 ± 0.01 ns

## CCC1=C(C)C2=C(c3ccc(OCCOCCN=[N+]=[N-])cc3)c3c(C)c(CC)c(C)n3[B-](F)(OC)[N+]2=C1C (stereo not drawn) [7b, 8-{4-[2-(2-Azidoethoxy)ethoxy]phenyl}-2,6-diethyl-4-fluoro-4-methoxy-1,3,5,7-tetramethyl-4-bora-3a,4a-diaza-s-indacene]
[3]
  staining pattern of fixed A549-3R tumor cells: a punctate staining pattern characteristic for the interaction with the ion channel was not observed; also recorded: high fluorescence intensity inside and around the nucleus

## CCC1=C(C)C2=C(c3ccc(OCCOCCn4cc(COc5ccc(C(C(N)=O)(c6ccccc6)c6ccc(F)cc6)cc5)nn4)cc3)c3c(C)c(CC)c(C)n3[B-](F)(F)[N+]2=C1C (stereo not drawn) [9b, 2-{4-[(1-{2-[4-(2,6-Diethyl-4,4-difluoro-1,3,5,7-tetramethyl-4-bora-3a,4a-diaza-s-indacen-8-yl)phenoxy]ethoxyethyl}-1,2,3-triazol-4-yl)methoxy]phenyl}-2-(4-flluorophenyl)-2-phenylacetamide]
[4]
  chromatographic logP: 6.7
[3]
  staining pattern of fixed A549-3R tumor cells: unspecific staining; also recorded: unspecific labeling

## CC1=CC(C)=[N+]2C1=C(CCCCn1cc(COc3ccc(C(C(N)=O)(c4ccccc4)c4ccc(F)cc4)cc3)nn1)c1c(C)cc(C)n1[B-]2(F)F (stereo not drawn) [15a, 2-[4-({1-[4-(4,4-Difluoro-1,3,5,7-tetramethyl-4-bora-3a,4a-diaza-s-indacen-8-yl)butyl]-1,2,3-triazol-4-yl}methoxy)phenyl]-2-(4-fluorophenyl)-2-phenylacetamide]
[4]
  chromatographic logP: 4.8
[2]; see Table 2
  quantum yield: 96%
[2]; [7]
  Absorption λmax: 501 nm
  Emission λmax: 513 nm
  Stokes Shift: 12 nm
  ΦF absolute quantum yield: 0.96 ± 0.04
  τ photoluminescence lifetime: 5.77 ns and 5.77 ± 0.02 ns
[3]
  staining pattern of fixed A549-3R tumor cells: unspecific staining; also recorded: unspecific labeling

## CO[B-]1(F)n2c(C)cc(C)c2C(CCCCn2cc(COc3ccc(C(C(N)=O)(c4ccccc4)c4ccc(F)cc4)cc3)nn2)=C2C(C)=CC(C)=[N+]21 (stereo not drawn) [16a, 2-[4-({1-[4-(4-Fluoro-4-methoxy-1,3,5,7-tetramethyl-4-bora-3a,4a-diaza-s-indacen-8-yl)butyl]-1,2,3-triazol-4-yl}methoxy)phenyl]-2-(4-fluorophenyl)-2-phenylacetamide]
[4]
  chromatographic logP: 4
[5]
  logD: > 5
[3]
  staining pattern of fixed A549-3R tumor cells: unspecific staining; also recorded: unspecific labeling

## CCC1=C(C)C2=C(CCCCn3cc(COc4ccc(C(C(N)=O)(c5ccccc5)c5ccc(F)cc5)cc4)nn3)c3c(C)c(CC)c(C)n3[B-](F)(OC)[N+]2=C1C (stereo not drawn) [16b, 2-[4-({1-[4-(2,6-Diethyl-4-fluoro-4-methoxy-1,3,5,7-tetramethyl-4-bora-3a,4a-diaza-s-indacen-8-yl)butyl]-1,2,3-triazol-4-yl}methoxy)phenyl]-2-(4-fluorophenyl)-2-phenylacetamide]
[4]
  chromatographic logP: 5.4
[3]
  staining pattern of fixed A549-3R tumor cells: unspecific staining; also recorded: unspecific labeling

## NC(=O)C(c1ccccc1)(c1ccc(F)cc1)c1ccc(OCCOCCOCCOCCNC(=S)Nc2ccc3c(c2)C(=O)OC32c3ccc(O)cc3Oc3cc(O)ccc32)cc1 (stereo not drawn) [21b, 2-(4-{12-[3-(3′,6′-Dihydroxy-3-oxo-3H-spiro[[2]benzofuran-1,9′-xanthen]-5-yl)thioureido]-1,4,7,10-tteraoxadodecan-1-yl}phenyl)-2-(4-fluorophenyl)-2-phenylacetamide]
[4]; HPLC at pH 6.0
  chromatographic logP: 1.3
[3]
  staining pattern of fixed A549-3R tumor cells: A weak green fluorescence of the membrane and an intense staining of the nucleus

## O=C1OC2(c3ccc(O)cc3Oc3cc(O)ccc32)c2ccccc21 [fluorescein, reference compound]
[1]; [8]
  absorption maximum λmax: 485 nm
  emission maximum λmax: 514 nm
